From patent publication US6344442B2, “Zona pellucida proteins for contraception” (Schering Aktiengesellschaft, priority 1996, dated 2002)

Columns and labels:
Type in all cases: cell-based
capacitated human sperm = assay: Acrosome reaction in capacitated human sperm
[1] = test system: human zona pellucida (bonding of human sperm); assay: Zona pellucida bonding test in humans (hemizona); conditions: 4 hours at 37° C.
Procedure: For the zona bonding test in humans, the ejaculate of normo-zoospermatocidal donor semen is prepared with use of SpermFertil^(R) glass wool columns (Mello Ltd., FRG). The filtrates were washed and resuspended in HFT-HSA (HFT=human tubal fluid medium according to Quinn et al., supplemented with 10 mg/ml of human serum albumin=HSA).
All human oocytes are obtained from post mortem material. Provision is made at all times to ensure that all legal, ethical and moral guidelines during the entire process are strictly followed.
Unless otherwise indicated, the oocytes are stored in 36.6 mmol of HEPES buffer, pH 7.4, which contains […] MgCl2 and 0.1% PVP at 4° C.
The experiments consist of three incubation drops that contain 10 μl of a standard HTF-HSA medium (see above) and 40 μl of working medium (see below). A specific number of oocytes (for TEM) or hemizonae for the bonding was added to each drop to ensure bonding. For the bonding experiments, a 10 μl sperm drop (50×10^6/ml) was added to each drop, covered with mineral oil, and incubated for 4 hours at 37° C. in 5% CO2. The statistical evaluation was done according to the non-parametric Mann-Whitney two-sample test.
Composition of the working medium: 20 μl of 5 mmol NaH2PO4 (adjusted with phosphoric acid), pH 2.5, plus 20 μl of a specially composed doubly-concentrated HTF-HSA medium, mixed at a ratio of 1:1 (vol/vol).
Composition of the doubly-concentrated HTF-HSA medium: […]

[2] = test system: mouse zona pellucida (bonding of mouse sperm); assay: Zona pellucida bonding test in mice (sperm bonding to isolated zonae); conditions: 20 sperm bonds per zona corresponds to 100%
Procedure: (§1) To recover sperm, a mouse buck is sacrificed, and the two epididymal appendages are removed and transferred into the prepared small Petri dishes [see above under b)]. The tissue parts are cut in the medium, so that the sperm can escape. The sperm are capacitated for one hour in the incubator. After the capacitation time has been completed, the sperm are diluted 1:5 with BWW/0.3 BSA. For counting in the counting chamber, a 1:1 aliquot is diluted with doubly distilled H2O. The desired sperm concentration is 40,000-80,000/0.1 ml.
(§2) The animals are sacrificed 13 hours after the HCG injection, and the tubes are removed and transferred into the prepared small Petri dishes [see above under a)]. Pending further processing, the small dishes are kept at 37° C. on the warming plate. Under the stereomicroscope, the tubes that are in oil are pulled apart. In this case, the cumulus clouds pour out, which then are transferred into the prepared medium drops (two cumulus clouds per drop).
The sperm and oocytes are obtained as described in in vitro fertilization.
The oocytes that are obtained as under I.2.3. are taken up by a finely drawn Pasteur pipette, whose diameter must be somewhat smaller than the diameter of the oocytes, with a few μl of BWW medium. This process is repeated several times and finally causes the zonae pellucida to burst. The cytoplasmic portion of the ooctyes is released, and the isolated zona pellucida is collected for further tests and covered in 0.1 ml of BWW medium with equilibrated oil and kept at 37° C.
The capacitated mouse sperm (see I.2.2) are preincubated for 15 minutes either with a solvent or the desired substance, and then 0.1 ml drops are added to the isolated zonae pellucidae, in such a way that the incubation volume is a total of 0.2 ml (under oil). About 20 zonae pellucidae are studied per drop. The sperm concentration per drop is between 10,000 and 30,000 per μl. Sperm and zonae are incubated for 45 minutes in an incubator (see Description under I.2). After the incubation period, the number of bonded sperm per zona is evaluated under an inverse microscope. The upper limit of the sperm, which have yet to be counted exactly, is 20 sperm per zona pellucida under control conditions.
10,000 Sperm per 0.01 ml with 20 sperm bonds per zonae corresponds to 100%

[3] = test system: mouse oocytes and sperm (in vitro fertilization); assay: Mouse in vitro fertilization; conditions: 24 hours incubation
From the text: I. In Vitro Fertilization
In vitro fertilization represents a test system that makes possible a first review of a contraceptive effect of substances. In this case, the possibility exists of studying whether the contraceptive effect can be attributed primarily to an inhibition of the sperm function(s) or to an inhibiting effect on the oocytes, or to the two above-mentioned effects.
Fertile female mice (CB6F1 strain) about 12 weeks of age; fertile male mice (CB6F1 strain) at least 14 weeks of age.
c) 0.1 ml of BWW/0.3% BSA, corresponding to the concentrations that are to be tested, is mixed with or without substance (control) for the fertilization (prepared after removal of the tubes), covered with equilibrated oil, and kept at 37° C.
10 injection units of PMS/0.1 ml are injected intrapericutaneously into the approximately 12-week-old fertile mice, and 54 hours later, 10 injection units of HCG/0.1 ml are administered.
as §1, §2
0.1 ml of dilute sperma-defined concentration is added to the oocytes that are in the medium drops and is incubated for 24 hours in the incubator at 37° C.
After incubating for 24 hours in the incubator, the following parameters are computed:
The fertilization rate corresponds to the number of divided oocytes per total number of intact oocytes.

sperm = assay: Sperm movement parameters

Row | Substance | triggering of the acrosome reaction (capacitated human sperm) | % Inhibition of Sperm Bonding (Human) to the Human Zona Pellucida ([1]; 1 μg/ml peptide) | % Inhibition of Sperm Bonding (Human) to the Human Zona Pellucida ([1]; 10 μg/ml peptide) | % Inhibition of Sperm Bonding (Mouse) to the Mouse Zona Pellucida ([2]; 1 μg/ml peptide) | % Inhibition of Sperm Bonding (Mouse) to the Mouse Zona Pellucida ([2]; 10 μg/ml peptide) | % Inhibition of Mouse In Vitro Fertilization ([3]; 0.1 μg/ml peptide) | % Inhibition of Mouse In Vitro Fertilization ([3]; 1 μg/ml peptide) | % Inhibition of Mouse In Vitro Fertilization ([3]; 10 μg/ml peptide) | % Inhibition of Sperm Bonding (Mouse) to the Mouse Zona Pellucida ([2]; 0.1 μg/ml peptide) | % Inhibition of Sperm Bonding (Mouse) to the Mouse Zona Pellucida ([2]; 100 μg/ml peptide) | influence on parameters of the sperm movement (sperm)
1 | Ac-CGTPSHSRRQPHVMS-NH2 [human ZPC (ZP3) peptide, residues 327-341] | do not trigger the acrosome reaction | 45% | 88% | – | – | – | – | – | – | – | –
2 | Ac-QRPGHIQFQS-NH2 [Ac-QRPGHIQFQS-NH2 (reverse), reference compound] | – | – | – | 0% | 0% | – | – | – | – | – | –
3 | Ac-SQFQIHGPRQ-NH2 | – | – | – | – | – | 0% | 63% | 5% | – | – | –
4 | NH2-RYPRQGNVSS-COOH (H-RYPRQGNVSS-OH) [human ZPC (ZP3) peptide, residues 141-150] | do not trigger the acrosome reaction | 76% | 77% | – | 89% | – | – | – | 71% | 91% | does not influence any parameters of the sperm movement
5 | NH2-SQFQIHGPRQ-COOH (H-SQFQIHGPRQ-OH) | – | – | – | 61% | 72% | 52% | 29% | 1% | – | – | –
6 | NH2-SRNRRHVTEEADVT-COOH (H-SRNRRHVTEEADVT-OH) [human ZPC (ZP3) peptide, residues 348-361] | – | 0% | 0% | – | 85% | – | – | – | 69% | 82% | –
7 | NH2-TPT..PDQNASPY-COOH (H-TPTPDQNASPY-OH) [human ZPC (ZP3) peptide, residues 220-230] | – | 0% | 18% | – | – | – | – | – | – | – | –
8 | NH2-TRRCRTASHPVSASE-COOH (H-TRRCRTASHPVSASE-OH) [human ZPC (ZP3) peptide, residues 410-424] | – | 61% | 88% | – | 87% | – | – | – | 86% | – | –
